Measurements: PubChem BioAssay AID248 (DTP/NCI, 2004)
“And” between values parts separate entries of the source, which are not always exact repeats. Identical values can stand only once. Inconclusive results and toxic doses are left out. Cut-off read from the data, not from the text of the source: active = T/C of 150% or more; inactive = T/C below 125%.

System: L1210 leukemia ip in BDF1 mice, survival T/C
Test: NCI In Vivo Anticancer Drug Screen. Data for tumor model L1210 Leukemia (intraperitoneal) in B6D2F1 (BDF1) mice
Conditions: endpoint: mean survival time, higher = longer survival
Outline: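 Tumor was transplanted into mice, which were then dosed with test compound or vehicle alone. Survival was recorded for each group, and the treated figure was expressed relative to the control figure.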

[1] = dose: 100.0 mg/kg/injection, schedule: Q04DX003 (ip), vehicle: saline
[2] = dose: 50.0 mg/kg/injection, schedule: Q04DX003 (ip), vehicle: Klucel (hydroxypropylcellulose) (HPC)
[3] = dose: 50.0 mg/kg/injection, schedule: Q01DX009 (ip), vehicle: saline with Tween-80
[4] = dose: 100.0 mg/kg/injection, schedule: Q01DX009 (ip), vehicle: saline with Tween-80
[5] = dose: 100.0 mg/kg/injection, schedule: Q04DX003 (ip), vehicle: saline with Tween-80
[6] = dose: 100.0 mg/kg/injection, schedule: Q04DX003 (ip), vehicle: Klucel (hydroxypropylcellulose) (HPC)
[7] = dose: 200.0 mg/kg/injection, schedule: Q04DX003 (ip), vehicle: Klucel (hydroxypropylcellulose) (HPC)
[8] = dose: 200.0 mg/kg/injection, schedule: Q04DX003 (ip), vehicle: saline
[9] = dose: 400.0 mg/kg/injection, schedule: Q04DX003 (ip), vehicle: saline
[10] = dose: 100.0 mg/kg/injection, schedule: Q01DX001 (ip), vehicle: carboxymethylcellulose (CMC)
[11] = dose: 200.0 mg/kg/injection, schedule: Q01DX001 (ip), vehicle: carboxymethylcellulose (CMC)
[12] = dose: 400.0 mg/kg/injection, schedule: Q01DX001 (ip), vehicle: carboxymethylcellulose (CMC)
[13] = dose: 100.0 mg/kg/injection, schedule: Q04DX002 (ip), vehicle: Klucel (hydroxypropylcellulose) (HPC)
[14] = dose: 200.0 mg/kg/injection, schedule: Q04DX002 (ip), vehicle: Klucel (hydroxypropylcellulose) (HPC)
[15] = dose: 400.0 mg/kg/injection, schedule: Q04DX002 (ip), vehicle: Klucel (hydroxypropylcellulose) (HPC)
[16] = dose: 50.0 mg/kg/injection, schedule: Q01DX001 (ip), vehicle: saline
[17] = dose: 100.0 mg/kg/injection, schedule: Q01DX001 (ip), vehicle: saline
[18] = dose: 200.0 mg/kg/injection, schedule: Q01DX001 (ip), vehicle: saline
[19] = dose: 400.0 mg/kg/injection, schedule: Q01DX001 (ip), vehicle: saline

Measured: T/C

CC(C)(C)C(=O)/C=C(\C=S(C)(C)=O)c1ccccc1
inactive: dose: 25.0 mg/kg/injection, schedule: Q04DX003 (ip), vehicle: saline 105 % of control | dose: 50.0 mg/kg/injection, schedule: Q04DX003 (ip), vehicle: saline 97 % of control | [1] 100 % of control

FC(F)(F)C(=Cc1nc2ccccc2s1)C(F)(F)F
inactive: dose: 12.5 mg/kg/injection, schedule: Q01DX009 (ip), vehicle: Klucel (hydroxypropylcellulose) (HPC) 91 % of control | dose: 12.5 mg/kg/injection, schedule: Q04DX003 (ip), vehicle: Klucel (hydroxypropylcellulose) (HPC) 93 % of control | dose: 25.0 mg/kg/injection, schedule: Q01DX009 (ip), vehicle: Klucel (hydroxypropylcellulose) (HPC) 98 % of control | dose: 25.0 mg/kg/injection, schedule: Q04DX003 (ip), vehicle: Klucel (hydroxypropylcellulose) (HPC) 97 % of control | [2] 95 % of control

COc1ccc(C(c2ccc(Cl)cc2)N2CCNCC2)cc1 (stereo not drawn)
inactive: dose: 25.0 mg/kg/injection, schedule: Q01DX009 (ip), vehicle: saline with Tween-80 98 % of control | [3] 96 % of control | [4] 96 % of control | [5] 102 % of control

CC(C)N1CCC(=O)NC1=O
inactive: [6] 94 % of control | [1] 94 % of control | [7] 94 % of control | [8] 92 % of control | dose: 400.0 mg/kg/injection, schedule: Q04DX003 (ip), vehicle: Klucel (hydroxypropylcellulose) (HPC) 91 % of control | [9] 103 % of control

O=C1C=CC(=O)N1C(=O)NC(I)NC(=O)N1C(=O)C=CC1=O
inactive: [10] 94 % of control | [11] 98 % of control | [12] 100 % of control

CC(C)CCCC(C)C1CCC2C3=CC=C4CC(OC(=O)c5cc([N+](=O)[O-])cc([N+](=O)[O-])c5)CCC4(C)C3CCC21C (stereo not drawn)
inactive: dose: 100.0 mg/kg/injection, schedule: Q01DX001 (ip), vehicle: other 88 % of control | dose: 200.0 mg/kg/injection, schedule: Q01DX001 (ip), vehicle: other 98 % of control

C=CCc1ccc(OC(=O)Nc2ccc(Cl)cc2)c(OC)c1
inactive: [13] 115 % of control | [14] 107 % of control | [15] 100 % of control

CC(=O)Nc1c(Br)cc2c(c1Br)C(=O)c1cc(Br)ccc1-2
inactive: [10] 100 % of control | [11] 100 % of control | [12] 100 % of control

CCCCn1cnc(=S)c2[nH]cnc21
inactive: [2] 98 % of control | [6] 114 % of control | dose: 133.0 mg/kg/injection, schedule: Q04DX003 (ip), vehicle: Klucel (hydroxypropylcellulose) (HPC) 118 % of control

O=[N+]([O-])c1ccc(C=Nc2ccccc2)s1
inactive: [6] 98 % of control | [7] 93 % of control

CCOC(=O)NCCCCCCNC(=O)OCC
inactive: [3] 97 % of control | [4] 95 % of control | dose: 200.0 mg/kg/injection, schedule: Q01DX009 (ip), vehicle: saline with Tween-80 95 % of control

N#Cc1ccc(/C=C\c2ccc(C#N)cc2)cc1
inactive: dose: 0.6 mg/kg/injection, schedule: Q04DX002 (ip), vehicle: Klucel (hydroxypropylcellulose) (HPC) 104 % of control | dose: 1.2 mg/kg/injection, schedule: Q04DX002 (ip), vehicle: Klucel (hydroxypropylcellulose) (HPC) 104 % of control | dose: 2.5 mg/kg/injection, schedule: Q04DX002 (ip), vehicle: Klucel (hydroxypropylcellulose) (HPC) 97 % of control | dose: 50.0 mg/kg/injection, schedule: Q04DX002 (ip), vehicle: Klucel (hydroxypropylcellulose) (HPC) 104 % of control | [13] 104 % of control and 122 % of control | [14] 109 % of control and 110 % of control | [15] 98 % of control

CC(C)(C)C(=O)CC(=O)C(C)(C)C.CC(C)(C)C(=O)CC(=O)C(C)(C)C.CC(C)(C)C(=O)CC(=O)C(C)(C)C.CC(C)(C)C(=O)CC(=O)C(C)(C)C.[Th]
inactive: [5] 96 % of control | dose: 200.0 mg/kg/injection, schedule: Q04DX003 (ip), vehicle: saline with Tween-80 98 % of control | dose: 400.0 mg/kg/injection, schedule: Q04DX003 (ip), vehicle: saline with Tween-80 90 % of control

CCC(C)COS(=O)(=O)c1ccc(C)cc1 (stereo not drawn)
inactive: dose: 100.0 mg/kg/injection, schedule: Q04DX002 (ip), vehicle: saline with Tween-80 103 % of control | dose: 200.0 mg/kg/injection, schedule: Q04DX002 (ip), vehicle: saline with Tween-80 103 % of control | dose: 400.0 mg/kg/injection, schedule: Q04DX002 (ip), vehicle: saline with Tween-80 100 % of control

COc1ccc(/C=N/NC(=S)Nc2ccccc2)cc1
inactive: dose: 100.0 mg/kg/injection, schedule: Q01DX009 (ip), vehicle: Klucel (hydroxypropylcellulose) (HPC) 103 % of control | dose: 200.0 mg/kg/injection, schedule: Q01DX009 (ip), vehicle: Klucel (hydroxypropylcellulose) (HPC) 95 % of control | dose: 400.0 mg/kg/injection, schedule: Q01DX009 (ip), vehicle: Klucel (hydroxypropylcellulose) (HPC) 108 % of control

O=C([O-])C[n+]1ccccc1
inactive: dose: 100.0 mg/kg/injection, schedule: Q01DX009 (ip), vehicle: saline 105 % of control | [1] 105 % of control | dose: 200.0 mg/kg/injection, schedule: Q01DX009 (ip), vehicle: saline 94 % of control | [8] 107 % of control | dose: 400.0 mg/kg/injection, schedule: Q01DX009 (ip), vehicle: saline 87 % of control | [9] 100 % of control

COc1ccccc1NC(=O)NNC(=O)CCCC(=O)NNC(=O)Nc1ccccc1OC
inactive: [16] 100 % of control | [17] 97 % of control | [18] 103 % of control | [19] 97 % of control

CC(=O)N(N=O)c1ccc(C)cc1
inactive: dose: 5.0 mg/kg/injection, schedule: Q01DX001 (ip), vehicle: saline 101 % of control | dose: 10.0 mg/kg/injection, schedule: Q01DX001 (ip), vehicle: saline 92 % of control | dose: 20.0 mg/kg/injection, schedule: Q01DX001 (ip), vehicle: saline 92 % of control | dose: 40.0 mg/kg/injection, schedule: Q01DX001 (ip), vehicle: saline 106 % of control

COc1ccc(C(N)C(=O)O)cc1 (stereo not drawn)
inactive: [16] 94 % of control | dose: 75.0 mg/kg/injection, schedule: Q01DX009 (ip), vehicle: Klucel (hydroxypropylcellulose) (HPC) 110 % of control | dose: 100.0 mg/kg/injection, schedule: Q01DX001 (ip), vehicle: Klucel (hydroxypropylcellulose) (HPC) 96 % of control | [17] 94 % of control | dose: 150.0 mg/kg/injection, schedule: Q01DX009 (ip), vehicle: Klucel (hydroxypropylcellulose) (HPC) 113 % of control | dose: 200.0 mg/kg/injection, schedule: Q01DX001 (ip), vehicle: Klucel (hydroxypropylcellulose) (HPC) 97 % of control | [18] 96 % of control | dose: 300.0 mg/kg/injection, schedule: Q01DX009 (ip), vehicle: Klucel (hydroxypropylcellulose) (HPC) 101 % of control | dose: 400.0 mg/kg/injection, schedule: Q01DX001 (ip), vehicle: Klucel (hydroxypropylcellulose) (HPC) 92 % of control | [19] 96 % of control

Cc1nnc(NS(=O)(=O)c2ccc(N=Nc3ccc(O)c4ncccc34)cc2)s1
inactive: [17] 105 % of control | [18] 102 % of control | [19] 96 % of control

O=C(NC(=S)N1CC1)c1ccccc1
inactive: dose: 100.0 mg/kg/injection, schedule: Q04DX002 (sc), vehicle: olive oil, sesame oil, peanut oil 100 % of control | dose: 200.0 mg/kg/injection, schedule: Q04DX002 (sc), vehicle: olive oil, sesame oil, peanut oil 103 % of control | dose: 400.0 mg/kg/injection, schedule: Q04DX002 (sc), vehicle: olive oil, sesame oil, peanut oil 100 % of control
